Assay results taken from ChEMBL document CHEMBL1130666, “Benzimidazole derivatives as arginine mimetics in 1,4-benzodiazepine nonpeptide vitronectin receptor (alpha v beta 3) antagonists” (Bioorg Med Chem Lett, 1998).

Legend:
[1] = target: T1, Integrin alpha-V/beta-3 (Homo sapiens, UniProt P05106+P06756); experiment: Effect against adhesion of HEK 293 cells transfected with human alpha-v beta-3 to vitronectin coated plates; format: functional, cell-based, HEK293
[2] = target: T1, Integrin alpha-V/beta-3; experiment: Binding affinity evaluated against vitronectin receptor (alphaV-beta3) receptor; format: protein-complex assay
[3] = target: Integrin alpha-IIb/beta-3 (Homo sapiens, UniProt P05106+P08514); experiment: Affinity for alphaIIb-beta3 receptor; format: protein-complex assay
Sequence of Integrin alpha-IIb/beta-3 (P05106 27-788 limits assumed): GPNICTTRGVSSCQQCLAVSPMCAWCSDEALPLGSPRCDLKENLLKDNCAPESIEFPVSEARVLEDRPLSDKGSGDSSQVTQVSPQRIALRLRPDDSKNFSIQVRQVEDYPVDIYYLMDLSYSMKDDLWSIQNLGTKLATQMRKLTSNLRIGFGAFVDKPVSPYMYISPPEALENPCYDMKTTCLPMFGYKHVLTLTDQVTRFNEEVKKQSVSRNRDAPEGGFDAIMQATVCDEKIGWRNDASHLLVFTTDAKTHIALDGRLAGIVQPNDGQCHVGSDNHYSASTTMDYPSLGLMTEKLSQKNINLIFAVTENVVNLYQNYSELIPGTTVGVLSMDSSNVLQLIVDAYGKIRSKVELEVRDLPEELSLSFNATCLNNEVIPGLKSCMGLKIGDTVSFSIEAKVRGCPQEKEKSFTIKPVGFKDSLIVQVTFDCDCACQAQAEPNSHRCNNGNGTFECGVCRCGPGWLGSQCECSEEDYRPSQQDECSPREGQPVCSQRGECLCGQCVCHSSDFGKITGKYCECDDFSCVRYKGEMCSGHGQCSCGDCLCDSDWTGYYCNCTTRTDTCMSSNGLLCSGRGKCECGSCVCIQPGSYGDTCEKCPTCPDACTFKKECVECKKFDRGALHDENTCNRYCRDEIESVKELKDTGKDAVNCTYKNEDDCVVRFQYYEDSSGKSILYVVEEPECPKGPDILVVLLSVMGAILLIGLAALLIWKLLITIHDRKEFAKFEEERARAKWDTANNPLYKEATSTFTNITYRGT
Sequence of Integrin alpha-IIb/beta-3 (P08514 32-887 limits assumed): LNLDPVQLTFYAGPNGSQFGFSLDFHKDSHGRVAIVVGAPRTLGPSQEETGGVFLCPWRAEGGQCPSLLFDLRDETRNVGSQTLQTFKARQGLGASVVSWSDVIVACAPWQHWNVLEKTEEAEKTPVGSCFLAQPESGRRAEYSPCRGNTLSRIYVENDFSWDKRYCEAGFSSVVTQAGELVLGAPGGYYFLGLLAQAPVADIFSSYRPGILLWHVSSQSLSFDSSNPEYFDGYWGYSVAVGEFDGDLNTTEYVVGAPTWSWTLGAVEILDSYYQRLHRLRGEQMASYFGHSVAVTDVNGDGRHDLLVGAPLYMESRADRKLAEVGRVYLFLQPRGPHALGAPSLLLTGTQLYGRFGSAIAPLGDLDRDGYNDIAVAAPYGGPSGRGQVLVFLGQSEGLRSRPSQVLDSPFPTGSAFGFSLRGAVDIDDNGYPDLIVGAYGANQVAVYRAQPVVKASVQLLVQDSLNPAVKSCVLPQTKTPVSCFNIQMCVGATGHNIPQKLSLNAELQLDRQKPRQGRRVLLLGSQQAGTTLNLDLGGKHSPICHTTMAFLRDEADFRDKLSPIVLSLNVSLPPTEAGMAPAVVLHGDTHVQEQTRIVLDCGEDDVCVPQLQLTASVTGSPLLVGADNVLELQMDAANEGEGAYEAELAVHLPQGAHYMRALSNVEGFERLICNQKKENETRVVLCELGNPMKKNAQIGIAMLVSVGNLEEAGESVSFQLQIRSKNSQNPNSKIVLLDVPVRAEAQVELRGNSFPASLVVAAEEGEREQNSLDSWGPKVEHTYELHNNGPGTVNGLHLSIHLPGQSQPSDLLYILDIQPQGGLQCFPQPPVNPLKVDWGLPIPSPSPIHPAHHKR
Sequence of Integrin alpha-IIb/beta-3 (P08514 891-1039 limits assumed): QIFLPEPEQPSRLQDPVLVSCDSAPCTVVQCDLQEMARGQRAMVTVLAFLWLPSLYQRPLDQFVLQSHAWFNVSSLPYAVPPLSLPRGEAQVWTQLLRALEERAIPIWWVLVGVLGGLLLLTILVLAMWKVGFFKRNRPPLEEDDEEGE

T1 sequence (P05106 27-788 limits assumed): as the sequence (P05106 27-788 limits assumed) above
T1 sequence (P06756 31-889 limits assumed): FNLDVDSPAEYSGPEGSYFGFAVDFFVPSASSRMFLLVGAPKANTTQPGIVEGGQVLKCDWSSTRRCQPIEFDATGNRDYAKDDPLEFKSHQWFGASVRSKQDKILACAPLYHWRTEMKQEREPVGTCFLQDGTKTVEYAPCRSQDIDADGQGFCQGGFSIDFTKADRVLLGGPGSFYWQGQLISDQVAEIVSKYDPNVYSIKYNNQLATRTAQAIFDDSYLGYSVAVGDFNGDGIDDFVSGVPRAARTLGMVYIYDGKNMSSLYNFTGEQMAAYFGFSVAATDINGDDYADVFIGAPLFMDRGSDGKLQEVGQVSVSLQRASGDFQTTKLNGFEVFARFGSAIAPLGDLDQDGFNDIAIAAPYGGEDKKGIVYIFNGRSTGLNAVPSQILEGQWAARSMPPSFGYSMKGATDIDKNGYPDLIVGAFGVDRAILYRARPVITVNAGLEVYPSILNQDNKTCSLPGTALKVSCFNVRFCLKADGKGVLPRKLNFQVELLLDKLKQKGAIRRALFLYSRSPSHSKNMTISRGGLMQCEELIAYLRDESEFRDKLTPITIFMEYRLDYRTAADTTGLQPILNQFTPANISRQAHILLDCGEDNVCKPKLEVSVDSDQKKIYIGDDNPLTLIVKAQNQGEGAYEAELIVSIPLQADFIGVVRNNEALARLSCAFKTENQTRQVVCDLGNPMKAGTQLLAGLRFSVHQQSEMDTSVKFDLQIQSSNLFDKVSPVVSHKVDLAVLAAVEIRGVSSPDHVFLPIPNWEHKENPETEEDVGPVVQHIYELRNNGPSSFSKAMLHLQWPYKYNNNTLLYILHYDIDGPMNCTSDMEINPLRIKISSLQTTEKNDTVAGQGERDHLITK
T1 sequence (P06756 891-1048 limits assumed): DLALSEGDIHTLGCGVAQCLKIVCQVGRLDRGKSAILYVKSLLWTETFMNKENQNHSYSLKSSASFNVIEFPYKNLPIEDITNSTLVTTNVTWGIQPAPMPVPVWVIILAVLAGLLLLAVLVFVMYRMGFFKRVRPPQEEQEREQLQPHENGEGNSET

Row | SMILES | IC50 [1] [µM] | Ki [2] [µM] | Ki [3] [µM]
1 | COc1ccc(OC)c2[nH]c(CN(C)C(=O)c3ccc4c(c3)CN(C)C(=O)[C@H](CC(=O)O)N4)nc12 | – | 1.3 | –
2 | CN(Cc1nc2cc(F)c(F)cc2[nH]1)C(=O)c1ccc2c(c1)CN(C)C(=O)[C@H](CC(=O)O)N2 | 0.54 | 0.0025 | –
3 | CN(Cc1nc2c([nH]1)CCCC2)C(=O)c1ccc2c(c1)CN(C)C(=O)[C@H](CC(=O)O)N2 | – | 0.005 | 2.75
4 | CN(Cc1nc2ccccc2n1C)C(=O)c1ccc2c(c1)CN(C)C(=O)[C@H](CC(=O)O)N2 | – | 0.07 | 28
5 | CN(Cc1nc2cc3c(cc2[nH]1)OCO3)C(=O)c1ccc2c(c1)CN(C)C(=O)[C@H](CC(=O)O)N2 | 0.69 | 0.009 | –
6 | CN(Cc1nc2ccc(C(F)(F)F)cc2[nH]1)C(=O)c1ccc2c(c1)CN(C)C(=O)[C@H](CC(=O)O)N2 | 1 | 0.0085 | –
7 | CN1Cc2cc(C(=O)N(Cc3nc4ccccc4[nH]3)Cc3nc4ccccc4[nH]3)ccc2N[C@@H](CC(=O)O)C1=O | 0.48 | 0.0025 | –
8 | Cc1cccc2[nH]c(CN(C)C(=O)c3ccc4c(c3)CN(C)C(=O)[C@H](CC(=O)O)N4)nc12 | 0.48 | 0.002 | –
9 | CN(Cc1nc2ccccc2o1)C(=O)c1ccc2c(c1)CN(C)C(=O)[C@H](CC(=O)O)N2 (racemic) | – | 1.1 | 30
10 | CN(Cc1nc2c([N+](=O)[O-])cccc2[nH]1)C(=O)c1ccc2c(c1)CN(C)C(=O)[C@H](CC(=O)O)N2 | 1.1 | 0.013 | –
11 | CN(Cc1nc2ccc([N+](=O)[O-])cc2[nH]1)C(=O)c1ccc2c(c1)CN(C)C(=O)[C@H](CC(=O)O)N2 (racemic) | 3 | 0.014 | –
12 | CN(Cc1nc2ccc(N)cc2[nH]1)C(=O)c1ccc2c(c1)CN(C)C(=O)[C@H](CC(=O)O)N2 (racemic) | 0.9 | 0.019 | –
13 | CN(Cc1nc2cc(C#N)ccc2[nH]1)C(=O)c1ccc2c(c1)CN(C)C(=O)[C@H](CC(=O)O)N2 (racemic) | 0.69 | 0.015 | –
14 | CN(Cc1nc2ccccc2s1)C(=O)c1ccc2c(c1)CN(C)C(=O)[C@H](CC(=O)O)N2 (racemic) | – | 0.48 | 29
15 | COc1cc2nc(CN(C)C(=O)c3ccc4c(c3)CN(C)C(=O)[C@H](CC(=O)O)N4)[nH]c2cc1OC | – | 0.18 | –
16 | CN(Cc1nc2c(N)cccc2[nH]1)C(=O)c1ccc2c(c1)CN(C)C(=O)[C@H](CC(=O)O)N2 | 0.81 | 0.0055 | –
17 | CN(Cc1nc2cc(Cl)ccc2[nH]1)C(=O)c1ccc2c(c1)CN(C)C(=O)[C@H](CC(=O)O)N2 (racemic) | 0.9 | 0.011 | –

More lines, now with the values ahead:

Row | IC50 [1] [µM] | Ki [2] [µM] | Ki [3] [µM] | SMILES
18 | 3 | 0.028 | – | COCCN1Cc2cc(C(=O)NCc3nc4ccccc4[nH]3)ccc2N[C@@H](CC(=O)O)C1=O (racemic)
19 | 0.67 | 0.0065 | – | O=C(O)C[C@@H]1Nc2ccc(C(=O)NCc3nc4ccccc4[nH]3)cc2CN(CCc2ccc3c(c2)OCO3)C1=O (racemic)
20 | 0.52 | 0.0035 | – | CCCCN(Cc1nc2ccccc2[nH]1)C(=O)c1ccc2c(c1)CN(C)C(=O)[C@H](CC(=O)O)N2
21 | 0.81 | 0.004 | – | CN1Cc2cc(C(=O)N(CC#N)Cc3nc4ccccc4[nH]3)ccc2N[C@@H](CC(=O)O)C1=O
22 | 0.28 | 0.005 | – | CN1Cc2cc(C(=O)N(CCc3ccccc3)Cc3nc4ccccc4[nH]3)ccc2N[C@@H](CC(=O)O)C1=O
23 | 1.5 | 0.015 | – | O=C(O)C[C@@H]1Nc2ccc(C(=O)NCc3nc4ccccc4[nH]3)cc2CN(Cc2ccccc2)C1=O
24 | 3.6 | 0.024 | – | CN1Cc2cc(C(=O)NCc3nc4ccccc4[nH]3)ccc2N[C@@H](CC(=O)O)C1=O (racemic)
25 | 0.34 | 0.003 | – | COCCN1Cc2cc(C(=O)N(C)Cc3nc4ccccc4[nH]3)ccc2N[C@@H](CC(=O)O)C1=O (racemic)
26 | 0.25 | 0.006 | – | CN(Cc1nc2ccccc2[nH]1)C(=O)c1ccc2c(c1)CN(CCc1ccc3c(c1)OCO3)C(=O)[C@H](CC(=O)O)N2 (racemic)
27 | 4.5 | 0.027 | – | O=C(O)C[C@@H]1Nc2ccc(C(=O)NCc3nc4ccccc4[nH]3)cc2CN(CC(=O)O)C1=O (racemic)
28 | 0.75 | 0.009 | – | O=C(O)C[C@@H]1Nc2ccc(C(=O)NCc3nc4ccccc4[nH]3)cc2CN(CCc2ccccc2)C1=O (racemic)
29 | 1.65 | – | – | CN1Cc2cc(C(=O)NCc3nc4ccccc4[nH]3)ccc2N[C@@H](CC(=O)O)C1=O
30 | 1.4 | 0.015 | – | CC(C)(C)CCN1Cc2cc(C(=O)NCc3nc4ccccc4[nH]3)ccc2N[C@@H](CC(=O)O)C1=O (racemic)
31 | – | 2.9 | 47 | CN1Cc2cc(C(=O)NCc3ncc[nH]3)ccc2N[C@@H](CC(=O)O)C1=O (racemic)
32 | 0.18 | 0.0016 | – | CN(Cc1nc2ccccc2[nH]1)C(=O)c1ccc2c(c1)CN(CCC(C)(C)C)C(=O)[C@H](CC(=O)O)N2 (racemic)
33 | 0.51 | 0.0019 | – | CN(Cc1nc2ccccc2[nH]1)C(=O)c1ccc2c(c1)CN(Cc1ccccc1)C(=O)[C@H](CC(=O)O)N2 (racemic)
34 | 0.5 | 0.0065 | – | CN(Cc1nc2ccccc2[nH]1)C(=O)c1ccc2c(c1)CNC(=O)[C@H](CC(=O)O)N2
35 | 5 | 0.03 | – | O=C(O)C[C@@H]1Nc2ccc(C(=O)NCc3nc4ccccc4[nH]3)cc2CNC1=O
36 | – | 0.75 | – | CN1Cc2cc(C(=O)N(Cc3nc4ccccc4[nH]3)C3CCCCC3)ccc2N[C@@H](CC(=O)O)C1=O
37 | 5.1 | 0.02 | – | CC(C)N1Cc2cc(C(=O)NCc3nc4ccccc4[nH]3)ccc2N[C@@H](CC(=O)O)C1=O (racemic)
38 | 0.09 | 0.004 | – | CN(Cc1nc2ccccc2[nH]1)C(=O)c1ccc2c(c1)CN(CCc1ccccc1)C(=O)[C@H](CC(=O)O)N2
39 | – | 0.11 | > 50 | CN1Cc2cc(C(=O)NCc3cc4ccccc4[nH]3)ccc2N[C@@H](CC(=O)O)C1=O (racemic)
40 | 0.35 | 0.01 | – | O=C(O)C[C@@H]1Nc2ccc(C(=O)NCc3nc4ccccc4[nH]3)cc2CN(CCc2cccnc2)C1=O
